Laboratory results from ChEMBL document CHEMBL1201862, “PubChem BioAssay data set” (2004).
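These data come from cells grown in 96-well plates and exposed to compound for 48 hours at five concentrations. At the GI50, growth is halved.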 Calls of active or inactive are those of the source. Cut-off read from the data, not from the text of the source: active = GI50 up to about 1.1 µM and inactive = higher.

What was measured:
Assay in all cases: DTP human tumour cell line panel, 48 h
OVCAR-5 = test system: OVCAR-5
NCI-H226 = test system: NCI-H226
Malme-3M = test system: Malme-3M
SF-539 = test system: SF-539
UACC-257 = test system: UACC-257
SF-295 = test system: SF-295
SN12C = test system: SN12C
OVCAR-3 = test system: OVCAR-3
COLO 205 = test system: COLO 205
NCI-H23 = test system: NCI-H23
MOLT-4 = test system: MOLT-4
SK-MEL-28 = test system: SK-MEL-28
M14 = test system: M14
EKVX = test system: EKVX
UO-31 = test system: UO-31
LOX IMVI = test system: LOX IMVI
RPMI-8226 = test system: RPMI-8226
ACHN = test system: ACHN
HT-29 = test system: HT-29
U-251 = test system: U-251

Measured: GI50

Fc1cccc(CSc2ncnc3c2ncn3C2CCCS2)c1 (stereo not given)
inactive: OVCAR-5 37.3 µM | NCI-H226 29.2 µM | Malme-3M 21 µM | SF-539 11.7 µM | UACC-257 15.6 µM | SF-295 18.2 µM | SN12C 25.8 µM | OVCAR-3 17.4 µM | COLO 205 10.2 µM | NCI-H23 23.9 µM | MOLT-4 3.77 µM | SK-MEL-28 18.9 µM | M14 18.1 µM | EKVX 18.7 µM | UO-31 12.1 µM | LOX IMVI 13.2 µM | RPMI-8226 7.08 µM | ACHN 16.9 µM | HT-29 15.5 µM | U-251 10.5 µM

CC(=O)c1nccc2c1c(C)nc1ccccc12
inactive: OVCAR-5 > 100 µM | NCI-H226 10.4 µM | Malme-3M > 100 µM | SF-539 > 100 µM | UACC-257 > 100 µM | SF-295 53.7 µM | SN12C 32.7 µM | OVCAR-3 > 100 µM | COLO 205 > 100 µM | NCI-H23 79.8 µM | MOLT-4 44.6 µM | SK-MEL-28 > 100 µM | M14 > 100 µM | EKVX 52.2 µM | UO-31 55.7 µM | LOX IMVI 57 µM | RPMI-8226 16.4 µM | ACHN > 100 µM | HT-29 74.5 µM | U-251 > 100 µM

COC(=O)C(=O)C(C(=O)OC)C(=O)C(=O)Nc1cc(Cl)c(Cl)cc1Cl (stereo not given)
inactive: OVCAR-5 > 100 µM | NCI-H226 > 100 µM | Malme-3M > 100 µM | SF-539 > 100 µM | UACC-257 > 100 µM | SF-295 > 100 µM | SN12C > 100 µM | OVCAR-3 > 100 µM | COLO 205 29.4 µM | NCI-H23 > 100 µM | MOLT-4 > 100 µM | SK-MEL-28 > 100 µM | M14 > 100 µM | EKVX > 100 µM | UO-31 > 100 µM | LOX IMVI 61 µM | RPMI-8226 24.9 µM | ACHN > 100 µM | HT-29 49.8 µM | U-251 > 100 µM

O=C1CSC(c2ccc(Cl)cc2Cl)N1c1ccc(Oc2ccc(Cl)cc2)c(Cl)c1 (stereo not given)
inactive: OVCAR-5 33.3 µM | NCI-H226 22.1 µM | Malme-3M 16.9 µM | SF-539 21.6 µM | UACC-257 37.1 µM | SF-295 22 µM | SN12C 37.7 µM | OVCAR-3 17.5 µM | COLO 205 25.5 µM | NCI-H23 27 µM | MOLT-4 24.3 µM | SK-MEL-28 39.4 µM | M14 23.9 µM | EKVX 23.3 µM | UO-31 7.08 µM | LOX IMVI 16.7 µM | RPMI-8226 13.8 µM | ACHN 35.7 µM | HT-29 16.4 µM | U-251 31.8 µM

C[C@@H]1O[C@]2(O)[C@@H]3CCCN3S(=O)(=O)CCN2C1=O
inactive: OVCAR-5 > 100 µM | NCI-H226 > 100 µM | Malme-3M > 100 µM | SF-539 > 100 µM | UACC-257 > 100 µM | SF-295 > 100 µM | SN12C > 100 µM | OVCAR-3 > 100 µM | COLO 205 > 100 µM | NCI-H23 > 100 µM | MOLT-4 > 100 µM | SK-MEL-28 > 100 µM | M14 > 100 µM | EKVX > 100 µM | UO-31 > 100 µM | LOX IMVI > 100 µM | RPMI-8226 > 100 µM | ACHN > 100 µM | HT-29 > 100 µM | U-251 > 100 µM
